The values below come from US5688767A, “Treatment of endotoxin-associated disorders with cationic peptides” (priority 1996, dated 1997).

Values after ≈ are worked out from the molar mass of the structure shown. Where two headings read alike, the source gives them in different places.

For one assay, the system named is S. typhimurium. Kind of assay: microbe, parasite or virus in culture. Format: cell-based, Salmonella typhimurium. The procedure: (§1) The minimum inhibitory concentrations of (MIC) of CEME, CEMA and melittin were determined for a number of different bacteria (Table 2). Briefly, cells were grown overnight at 37° C. in LB-S (Luria broth without any salt supplement) and diluted one in 10,000 in the same medium to give concentrations of about 10^4 to 10^5 CFU/ml. The broth dilutions were set up in a 96 well microtiter plate by putting 200 μl of LB-S containing the initial concentration of antibiotic or compound in column 1 and 100 μl of the same medium in columns 2-12. The compounds were diluted by taking 100 μl of broth from column 1 and mixing it with column 2, resulting in a one in two dilution. This was continued to column 10. Finally, 10 μl of bacteria were pipetted into columns 1-11, and the plates incubated overnight at 37° C. The next day the plates were scored for growth in the wells, and the MIC determined.
(§2) Bacteria included the Bort strain of E. coli (Bortolussi, et al., Inf. Immun., 25:293, 1979) that was originally derived from a case of neonatal meningitis, and which is therefore considered a relevant pathogenic strain to study, and the 0111:B4 strain of E. coli (kindly provided by Dr. D. Morrison) which is a standard source of endotoxin. (Kelly, et al., Inf. Immun., 59:4491, 1991). In addition, P. aeruginosa PA01 strain H103, P. aeruginosa M2, P. aeruginosa K799, Eschericha coli UB 1005, Enterobacter cloacae 218S, Salmonella typhimurium MS7953s, Klebsiella pneumoniae ATCC 13883, Xanthomonas maltophilia ATCC 13637, and Acinetobacter calcoacetious 8193 were employed. LPS was obtained from E. coli Bort by the technique of Westphal and Jann, (Westphal, et al., Acad. Press, Inc. NY., 5:83) and from P. aeruginosa H103 by the method of Darveau and Hancock, (Darveau, et al., J. Bacteriol, 155:831, […]). E. coli 0111:B4 LPS was purchased from Sigma.

A further assay relates to E. coli. Kind of assay: microbe, parasite or virus in culture. Type of assay: cell-based, Escherichia coli. As for the experimental part: as §1, §2
A short description of assay [1]: MIC of common antibiotics in the presence of sub-MIC levels of cationic peptides. Type of assay: cell-based. The source says:
The ability of the cationic peptides to work synergistically was examined by determining the MIC values for some commonly used antibiotics in the presence of sub-MIC levels of cationic peptides (Table 4). […] This may be due to the high membrane permeabilizing activity of CEMA (see below). However, the peptides did lower the MIC of polymyxin B, possibly due to the fact that they are all taken up by the same pathway and are therefore aiding each other's uptake. Of interest is the influence that melittin has on the MIC of polymyxin B, given the weak membrane permeabilizing activity of melittin.

The subject of a further assay is P. aeruginosa. As to the kind of experiment: microbe, parasite or virus in culture. Type of assay: cell-based, Pseudomonas aeruginosa. The procedure:
as §1, §2

In the next assay the test system is S. aureus. As to the kind of experiment: microbe, parasite or virus in culture. Type of assay: cell-based, Staphylococcus aureus. As for the experimental part:
as §1

A further assay has as its system P. AERUGINOSA H309. As to the kind of experiment: microbe, parasite or virus in culture. Format: cell-based, Pseudomonas aeruginosa. As for the experimental part:
as §1, with “Briefly,” for “The minimum inhibitory concentrations of (MIC) of CEME, CEMA and melittin were determined for a number of different bacteria (Table 2). Briefly,”

A further assay concerns E. cloacae. Kind of assay: microbe, parasite or virus in culture. Type of assay: cell-based, Enterobacter cloacae. As for the experimental part: as §1, §2
In assay [2] the test system is P. aeruginosa H309 Whole Cells. Kind of assay: DPx binding inhibition using whole cells. The note with it: DPx at 90-100% binding saturation, average of at least three trials. Details: species or system Pseudomonas aeruginosa. As for the experimental part: For DPx binding inhibition assays using whole cells instead of purified LPS, H309 cells were prepared the same way as for the lysozyme lysis assay. The assay consisted of 10 μl of cells at an OD600 of 0.5, 990 μl of 5 mM HEPES pH 7.2 and 5 mM KCN, and the concentration of DPx that gave 90-100% binding saturation. […] Compounds were titrated in, and I50 values were determined as described above.

The target in a further assay is P. aeruginosa H103 LPS. As to the kind of experiment: Dansyl polymyxin (DPx) displacement from purified LPS. Format: binding, Pseudomonas aeruginosa. The note with it: 2.5 μM DPx, 3 μg/ml LPS, 5 mM HEPES pH 7.2, average of at least three trials. As for the experimental part:
In this assay, DPx was incubated with LPS to saturate the binding sites and then, while polycationic compounds are titrated into the reaction, displacement of the DPx was monitored by the decrease in fluorescence (FIG. 9). P. aeruginosa LPS was isolated as previously described (Darveau, et al., J of Bacteriology, 155:831, 1983) Dansyl polymyxin was synthesized as described by Schindler, et al., B. Antimicrobial Agents and Chemo, 8:95, 1975.
The method of Moore, et al., (Antimicrobial Agents and Chemo., 29:496, 1987), was used to test how much DPx was needed to saturate the binding sties on LPS. Briefly, 5 μl samples of 100 μM DPx were titrated sequentially into 1 ml of 3 μg/ml of LPS until a maximum fluorescence was reached. The fluorescence was measured in a Perkin-Elmer 650-10S fluorescence spectrophotometer with an excitation wavelength of 340 nm and an emission wavelength of 485 nm using slit widths of 5 nm. […] For the binding inhibition assays (Moore, et al., Antimicrobial Agents and Chemo., 29:496, 1987), 2.5 μM DPx was added to 3 μg/ml of H103 LPS in 5 mM HEPES pH 7.2. The test compounds were added 5 μl at a time and the decrease in fluorescence due to displacement of the DPx from the LPS was recorded.
When the data was plotted as a double reciprocal plot (FIG. 10), the X-intercept provided a value that is equal to -1/I50.

Regarding `CC(C)(O/N=C(\C(=O)N[C@@H]1C(=O)N2C(C(=O)[O-])=C(C[n+]3ccccc3)CS[C@H]12)c1csc(N)n1)C(=O)O` [Ceftazidime, ceftazidime], the MIC stood at 0.25 µg/mL (≈ 0.457 µM) with S. typhimurium (Salmonella enterica, TYPHIMURIUM); 0.25 µg/mL (≈ 0.457 µM) against S. typhimurium (strain C590, Defensin sensitive); 0.12 µg/mL (≈ 0.22 µM) in the assay on E. coli (Escherichia coli, SC9251 / SC9252, strain SC9251, Parent of SC9252); 0.5 µg/mL (≈ 0.915 µM) in the assay with E. coli (Escherichia coli, SC9252, strain SC9252, Polymyxin resistant); 0.06 µg/mL (≈ 0.11 µM) in the assay with E. coli (Escherichia coli, strain DC2, Polymyxin sensitive); 0.5 µg/mL (≈ 0.915 µM) with E. coli (Escherichia coli, strain UB1005, Parent of DC2 (Table 2)). In addition, the MIC in the assay with P. aeruginosa (Pseudomonas aeruginosa, strain H187, Parent of H188, read-out: MIC) was 2 µg/mL (≈ 3.66 µM); with P. aeruginosa (Pseudomonas aeruginosa, strain H188, Antibiotic sensitive, read-out: MIC) it was 0.03 µg/mL (≈ 0.0549 µM); in the assay with P. aeruginosa (Pseudomonas aeruginosa, strain H309, Wildtype, read-out: MIC) it was 1 µg/mL (≈ 1.83 µM); against S. aureus (Staphylococcus aureus, strain RN4220, Methicillin sensitive), 8 µg/mL (≈ 14.6 µM); in the assay with S. aureus (Staphylococcus aureus, strain SAP0017, Methicillin resistant) it was above 16 µg/mL; in the assay on P. AERUGINOSA H309 (Pseudomonas aeruginosa, +5 mM Mg^++, read-out: MIC), 2 µg/mL (≈ 3.66 µM). For the same compound, the MIC in the assay on P. AERUGINOSA H309 (Pseudomonas aeruginosa, +80 mM Na^+, read-out: MIC) is 2 µg/mL (≈ 3.66 µM); in the assay on P. AERUGINOSA H309 (Pseudomonas aeruginosa, No addition, read-out: MIC), 1 µg/mL (≈ 1.83 µM); in the assay with E. cloacae (Enterobacter cloacae, strain 218R1, β-lactam resistant) it was above 16 µg/mL; with E. cloacae (Enterobacter cloacae, strain 218S, Parent of 218R1 (Table 2)), 0.5 µg/mL (≈ 0.915 µM). In addition, the “MIC in the presence of” value in [1] (CEMA 0.7 μg/ml) was found to be 2 μg/m1; in assay [1] (CEMA 1.4 μg/ml), 2 μg/m1; in assay [1] (CEME 0.6 μg/ml), 4 μg/m1; in assay [1] (CEME 1.2 μg/ml), 4 μg/m1; in [1] (Melittin 2 μg/ml) it was 4 μg/m1; in [1] (Melittin 4 μg/ml), 2 μg/m1. Besides, the “MIC in the presence of” value in [1] (No peptide) is on record as 4 μg/m1.

gentamicin: the entries for the “I50, Value in μg/ml” value (in assay [2]; at P. aeruginosa H103 LPS) were 36.92 ± 9.12 µg/mL and 18.16 ± 6.77 µg/mL, respectively. For the same compound, the MIC in the assay with E. coli (strain UB1005, Parent of DC2 (Table 2)) was 1 µg/mL; with P. aeruginosa (strain H187, Parent of H188) it was 1 µg/mL; in the assay with P. aeruginosa (strain H188, Antibiotic sensitive), 0.25 µg/mL; with P. aeruginosa (strain H309, Wildtype) it was 1 µg/mL; against S. aureus (strain RN4220, Methicillin sensitive) it was 2 µg/mL; against S. aureus (strain SAP0017, Methicillin resistant), above 8 µg/mL. Further, the MIC with P. AERUGINOSA H309 (+5 mM Mg^++) was determined as 4 µg/mL; in the assay on P. AERUGINOSA H309 (+80 mM Na^+), 1 µg/mL; with P. AERUGINOSA H309 (No addition), 1 µg/mL; with E. cloacae (strain 218S, Parent of 218R1 (Table 2)), 0.5 µg/mL. The IC50 at P. aeruginosa H103 LPS (read-out: I50, Value in μM) came to 19.2 ± 7.18 µM.
